Patent US20120129833A1, “CYCLIC KETOENOLS FOR THERAPY” (BAYER PHARMA AKTIENGESELLSCHAFT, priority 2010, published 2012)

Experiments:
[1] = target: T1, ACC2 (acetyl-CoA carboxylase 2) (Homo sapiens, UniProt O00763); experiment: Human ACC2 enzyme assay (HTRF ADP detection); assay type: biochemical; conditions: 20 μM acetyl-CoA, 15 min pre-incubation, 20 min at 22° C.; read-out: ACC 2 IC50
T1 construct: catalogue no; 50201, amino acids 39—end, expressed in baculovirus-transfected Sf9 insect cells; His (C); purchased BPS Bioscience (San Diego, Calif.) 50201; host or cells: baculovirus-transfected Sf9 insect cells

[2] = target: T2, recombinant human ACC1 (acetyl-CoA carboxylase 1) (Homo sapiens, UniProt Q13085); experiment: Human ACC1 enzyme assay (HTRF ADP detection); assay type: biochemical; conditions: 50 μM ATP, 20 μM acetyl-CoA, 15 min pre-incubation, 20 min at 22° C.; read-out: ACC 1 IC50;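 further: ADP by-product quantified by competitive HTRF immunoassay with europium cryptate anti-ADP antibody and d2-labelled ADP, read after 1 h binding at 22 °C, enzyme near 2.5 ng/µl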
T2 construct: NM_198834, amino acids 39—end; FLAG (C); made in house; host or cells: baculovirus-transfected insect cells (Hi5)
Procedure: The basic principle of the assay is the measurement of adenosine diphosphate (ADP), which is formed as a by-product, by means of an HTRF®-based competitive immunoassay (HTRF=Homogeneous Time Resolved Fluorescence).
The amount of complex of d2-labelled ADP and europium cryptate-labelled anti-ADP antibody was then determined by measuring the resonance energy transfer of europium cryptate to d2.

T1 sequence (O00763 39-2458 limits assumed): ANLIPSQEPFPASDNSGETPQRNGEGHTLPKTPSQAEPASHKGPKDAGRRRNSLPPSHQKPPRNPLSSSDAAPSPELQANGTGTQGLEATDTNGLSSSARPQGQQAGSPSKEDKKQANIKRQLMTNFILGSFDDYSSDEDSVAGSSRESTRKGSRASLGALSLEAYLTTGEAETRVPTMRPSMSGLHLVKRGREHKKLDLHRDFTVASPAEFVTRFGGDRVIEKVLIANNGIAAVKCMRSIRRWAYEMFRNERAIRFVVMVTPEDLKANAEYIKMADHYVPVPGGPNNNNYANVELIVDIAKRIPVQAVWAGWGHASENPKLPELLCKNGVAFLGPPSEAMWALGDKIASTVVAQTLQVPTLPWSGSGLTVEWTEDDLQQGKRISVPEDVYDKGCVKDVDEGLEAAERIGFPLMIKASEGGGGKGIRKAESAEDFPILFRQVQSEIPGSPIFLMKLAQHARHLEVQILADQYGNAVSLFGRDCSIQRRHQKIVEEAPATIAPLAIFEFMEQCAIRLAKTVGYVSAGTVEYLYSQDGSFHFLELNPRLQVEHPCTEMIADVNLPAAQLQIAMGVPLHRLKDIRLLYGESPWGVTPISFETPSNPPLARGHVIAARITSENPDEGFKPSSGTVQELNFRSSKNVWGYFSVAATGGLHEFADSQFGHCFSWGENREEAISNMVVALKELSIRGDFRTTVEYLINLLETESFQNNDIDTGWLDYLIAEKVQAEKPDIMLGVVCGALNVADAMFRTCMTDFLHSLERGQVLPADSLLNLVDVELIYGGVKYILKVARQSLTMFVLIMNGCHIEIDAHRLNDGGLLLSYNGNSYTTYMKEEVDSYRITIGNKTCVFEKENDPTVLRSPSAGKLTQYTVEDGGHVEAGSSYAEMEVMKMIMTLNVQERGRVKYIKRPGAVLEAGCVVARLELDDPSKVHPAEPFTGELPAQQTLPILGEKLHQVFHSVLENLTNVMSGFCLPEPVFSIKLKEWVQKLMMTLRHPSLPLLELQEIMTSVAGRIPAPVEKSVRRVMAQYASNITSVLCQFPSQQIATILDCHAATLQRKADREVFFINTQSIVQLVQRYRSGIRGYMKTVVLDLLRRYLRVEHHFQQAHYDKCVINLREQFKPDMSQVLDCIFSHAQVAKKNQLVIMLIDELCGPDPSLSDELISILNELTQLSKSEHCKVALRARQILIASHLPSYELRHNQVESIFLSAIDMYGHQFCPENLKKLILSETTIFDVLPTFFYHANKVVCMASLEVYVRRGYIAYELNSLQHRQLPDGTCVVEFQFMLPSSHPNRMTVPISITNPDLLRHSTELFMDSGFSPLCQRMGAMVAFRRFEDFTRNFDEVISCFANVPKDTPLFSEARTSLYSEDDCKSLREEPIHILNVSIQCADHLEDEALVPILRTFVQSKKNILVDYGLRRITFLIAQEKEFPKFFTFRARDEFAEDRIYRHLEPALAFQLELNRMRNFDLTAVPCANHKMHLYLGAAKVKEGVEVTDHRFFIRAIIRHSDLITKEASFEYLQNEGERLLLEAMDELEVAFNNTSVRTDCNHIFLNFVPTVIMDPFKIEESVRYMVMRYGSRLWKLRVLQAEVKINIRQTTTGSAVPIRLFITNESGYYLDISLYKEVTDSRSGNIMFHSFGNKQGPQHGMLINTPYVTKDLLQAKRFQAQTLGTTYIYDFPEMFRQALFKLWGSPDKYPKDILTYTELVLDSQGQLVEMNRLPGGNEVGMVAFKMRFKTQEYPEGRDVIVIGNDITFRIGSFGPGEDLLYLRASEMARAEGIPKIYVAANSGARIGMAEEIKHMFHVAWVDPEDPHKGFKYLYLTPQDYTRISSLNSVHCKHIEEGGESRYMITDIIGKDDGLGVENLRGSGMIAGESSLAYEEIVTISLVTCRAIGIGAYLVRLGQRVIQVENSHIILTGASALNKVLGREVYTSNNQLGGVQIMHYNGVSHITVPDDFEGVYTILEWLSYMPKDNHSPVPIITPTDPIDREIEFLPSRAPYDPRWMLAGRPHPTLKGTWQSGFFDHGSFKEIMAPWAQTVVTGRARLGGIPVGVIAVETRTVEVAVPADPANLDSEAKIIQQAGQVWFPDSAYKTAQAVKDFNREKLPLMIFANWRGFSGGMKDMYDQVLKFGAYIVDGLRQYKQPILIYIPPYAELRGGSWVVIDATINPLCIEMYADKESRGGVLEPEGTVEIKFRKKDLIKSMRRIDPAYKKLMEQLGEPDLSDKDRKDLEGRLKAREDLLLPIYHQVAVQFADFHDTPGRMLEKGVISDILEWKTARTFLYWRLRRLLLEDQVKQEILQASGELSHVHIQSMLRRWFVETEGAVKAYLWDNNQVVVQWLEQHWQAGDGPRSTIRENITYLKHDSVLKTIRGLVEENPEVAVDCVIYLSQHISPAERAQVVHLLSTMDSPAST

Structure (SMILES) | IC50 [1] | IC50 [2]
COC1CCC2(CC1)NC(=O)C(c1cc(-c3ccc(Cl)cc3)c(C)cc1C)=C2O (stereo not drawn) [Example 1-7, 3-(4′-chloro-4,6-dimethylbiphenyl-3-yl)-4-hydroxy-8-methoxy-1-azaspiro[4.5]dec-3-en-2-one] | 87 nM | 1700 nM
Cc1cc(C)c(-c2ccc(Cl)cc2)cc1C1=C(O)C2(CCOCC2)OC1=O [Example 2-41, 3-(4′-chloro-4,6-dimethylbiphenyl-3-yl)-4-hydroxy-1,8-dioxaspiro[4.5]dec-3-en-2-one] | 4220 nM | 791 nM
Cc1ccc(-c2ccc(Cl)cc2)cc1C1=C(O)CC(C)CC1=O (stereo not drawn) [Example 7-1, 2-(4′-chloro-4-methylbiphenyl-3-yl)-3-hydroxy-5-methylcyclohex-2-en-1-one] | > 20000 nM | 678 nM
O=C1NC2(CCOCC2)C(O)=C1c1cc(-c2ccc(F)cc2)ccc1Cl [Example 1-41, 3-(4-chloro-4′-fluorobiphenyl-3-yl)-4-hydroxy-8-oxa-1-azaspiro[4.5]dec-3-en-2-one] | > 20000 nM | 751 nM
Cc1cc(C)c(-c2ccc(Cl)cc2)c(C)c1C1=C(O)C2(CCCCC2)CC1=O [Example 6-9, 3-(4′-chloro-2,4,6-trimethylbiphenyl-3-yl)-4-hydroxyspiro[4.5]dec-3-en-2-one] | 387 nM | > 20000 nM
Cc1ccc(-c2ccc(Cl)cc2)cc1C1C(=O)N(C)N(C)C1=O [Example 8-14, 4-(4′-chloro-4-methylbiphenyl-3-yl)-1,2-dimethyl-1H-pyrazole-3,5(2H,4H)-dione] | > 20000 nM | 2400 nM
CO[C@H]1CC[C@]2(CC1)NC(=O)C(c1cc(-c3ccc(F)cc3)ccc1Cl)=C2O [Example 1-44, (5s,8s)-3-(4-chloro-4′-fluorobiphenyl-3-yl)-4-hydroxy-8-methoxy-1-azaspiro[4.5]dec-3-en-2-one] | > 20000 nM | 915 nM
COC1CCC2(CC1)OC(=O)C(c1cc(-c3ccccc3Cl)ccc1C)=C2O (stereo not drawn) [Example 2-7, 3-(2′-chloro-4-methylbiphenyl-3-yl)-4-hydroxy-8-methoxy-1-oxaspiro[4.5]dec-3-en-2-one] | > 20000 nM | 500 nM
Cc1ccc(-c2ccc(Cl)cc2)cc1C1=C(O)C2(CCC(OCC(F)(F)F)CC2)OC1=O (stereo not drawn) [Example 2-33, 3-(4′-chloro-4-methylbiphenyl-3-yl)-4-hydroxy-8-(2,2,2-trifluoroethoxy)-1-oxaspiro[4.5]dec-3-en-2-one] | 3590 nM | 229 nM
Cc1ccc(-c2ccc(Cl)cc2)c(C)c1C1=C(O)C2(CCCC2)OC1=O [Example 2-2, 3-(4′-chloro-2,4-dimethylbiphenyl-3-yl)-4-hydroxy-1-oxaspiro[4.4]non-3-en-2-one] | 5280 nM | 260 nM
COCC1CCCC2(C1)NC(=O)C(c1cc(-c3ccc(Cl)cc3)ccc1C)=C2O (stereo not drawn) [Example 1-51, 3-(4′-chloro-4-methylbiphenyl-3-yl)-4-hydroxy-7-(methoxymethyl)-1-azaspiro[4.5]dec-3-en-2-one] | 4910 nM | 473 nM
CO[C@H]1CC[C@]2(CC1)NC(=O)C(c1cc(-c3ccc(Cl)cc3)ccc1C)=C2O [Example 1-2, (5s,8s)-3-(4′-chloro-4-methylbiphenyl-3-yl)-4-hydroxy-8-methoxy-1-azaspiro[4.5]dec-3-en-2-one] | 370 nM | […]
Cc1cc(C)c(-c2ccc(Cl)cc2)cc1C1=C(O)C2(CCCCC2)CC1=O [Example 6-8, 3-(4′-chloro-4,6-dimethylbiphenyl-3-yl)-4-hydroxyspiro[4.5]dec-3-en-2-one] | 127 nM | 1380 nM
COCC1CCC2(CC1)NC(=O)C(c1cc(-c3ccc(Cl)cc3)ccc1Cl)=C2O (stereo not drawn) [Example 1-54, 3-(4,4′-dichlorobiphenyl-3-yl)-4-hydroxy-8-(methoxymethyl)-1-azaspiro[4.5]dec-3-en-2-one] | 1100 nM | 220 nM
Cc1ccc(-c2ccc(Cl)c(C3=C(O)C4(CCOCC4)NC3=O)c2)cc1F [Example 1-39, 3-(4-chloro-3′-fluoro-4′-methylbiphenyl-3-yl)-4-hydroxy-8-oxa-1-azaspiro[4.5]dec-3-en-2-one] | > 20000 nM | 663 nM
Cc1ccc(-c2ccc(Cl)cc2)cc1C1=C(O)C2(CCC3(CC2)OCCO3)OC1=O [Example 2-15, 11-(4′-chloro-4-methylbiphenyl-3-yl)-12-hydroxy-1,4,9-trioxadispiro[4.2.4.2]tetradec-11-en-10-one] | 3680 nM | 204 nM
CO[C@H]1CC[C@]2(CC1)NC(=O)C(c1cc(-c3ccc(F)c(Cl)c3)ccc1C)=C2O [Example 1-43, (5s,8s)-3-(3′-chloro-4′-fluoro-4-methylbiphenyl-3-yl)-4-hydroxy-8-methoxy-1-azaspiro[4.5]dec-3-en-2-one] | 10200 nM | 304 nM
Cc1ccc(-c2ccc(Cl)cc2)cc1C1=C(O)C(C)N(C(C)C)C1=O (stereo not drawn) [Example 1-19, 3-(4′-chloro-4-methylbiphenyl-3-yl)-4-hydroxy-5-methyl-1-(propan-2-yl)-1,5-dihydro-2H-pyrrol-2-one] | 6960 nM | 874 nM

Structure (SMILES) | IC50 [1] | IC50 [2]
CCc1cc(C)cc(Br)c1C1=C(O)C2(CCCCC2)OC1=O [Example C-4, reference compound] | > 20000 nM | 5400 nM
Cc1ccc(-c2ccc(Cl)cc2)cc1C1=C(O)CN(C)C1=O [Example 1-16, 3-(4′-chloro-4-methylbiphenyl-3-yl)-4-hydroxy-1-methyl-1,5-dihydro-2H-pyrrol-2-one] | > 20000 nM | 329 nM
Cc1cc(C)c(-c2ccc(Cl)cc2)cc1C1=C(O)C2(CCCCCC2)OC1=O [Example 2-43, 3-(4′-chloro-4,6-dimethylbiphenyl-3-yl)-4-hydroxy-1-oxaspiro[4.6]undec-3-en-2-one] | 330 nM | 504 nM
COCC1CCCC2(C1)NC(=O)C(c1cc(-c3ccc(Cl)cc3)ccc1Cl)=C2O (stereo not drawn) [Example 1-52, 3-(4,4′-dichlorobiphenyl-3-yl)-4-hydroxy-7-(methoxymethyl)-1-azaspiro[4.5]dec-3-en-2-one] | > 20000 nM | 1270 nM
Cc1ccc(-c2ccc(Cl)cc2)cc1C1=C(O)C2(CCCOC2)OC1=O (stereo not drawn) [Example 2-9, 3-(4′-chloro-4-methylbiphenyl-3-yl)-4-hydroxy-1,7-dioxaspiro[4.5]dec-3-en-2-one] | > 20000 nM | 334 nM
Cc1ccc(-c2ccc(F)c(F)c2)cc1C1=C(O)C2(CCC3(CCCO3)CC2)NC1=O (stereo not drawn) [Example 1-35, 11-(3′,4′-difluoro-4-methylbiphenyl-3-yl)-12-hydroxy-1-oxa-9-azadispiro[4.2.4.2]tetradec-11-en-10-one] | 4000 nM | 298 nM
COC1CCC2(CC1)OC(=O)C(c1cc(-c3ccc(Cl)cc3)c(C)cc1C)=C2O (stereo not drawn) [Example 2-44, 3-(4′-chloro-4,6-dimethylbiphenyl-3-yl)-4-hydroxy-8-methoxy-1-oxaspiro[4.5]dec-3-en-2-one] | 160 nM | 297 nM
Cc1ccc(-c2ccc(Cl)cc2)cc1C1=C(O)C2(CCC3(CCCO3)CC2)OC1=O (stereo not drawn) [Example 2-29, 3-(4′-chloro-4-methylbiphenyl-3-yl)-4-hydroxy-1,9-dioxadispiro[4.2.4.2]tetradec-3-en-2-one] | 789 nM | 321 nM
Cc1ccc(-c2ccc(F)cc2)cc1-c1c(O)c2ccc(F)cc2[nH]c1=O [Example 9-9, 7-fluoro-3-(4′-fluoro-4-methylbiphenyl-3-yl)-4-hydroxyquinolin-2(1H)-one] | > 20000 nM | 863 nM
Cc1ccc(-c2ccc(Cl)cc2)cc1C1=C(O)C2(CCC3(CC2)OCC(C)(C)CO3)NC1=O [Example 1-67, 3-(4′-chloro-4-methylbiphenyl-3-yl)-4-hydroxy-11,11-dimethyl-9,13-dioxa-1-azadispiro[4.2.5.2]pentadec-3-en-2-one] | 1440 nM | 668 nM
COC1CCC2(CC1)SC(=O)C(c1cc(-c3ccc(Cl)cc3)ccc1C)=C2O (stereo not drawn) [Example 3-1, 3-(4′-chloro-4-methylbiphenyl-3-yl)-4-hydroxy-8-methoxy-1-thiaspiro[4.5]dec-3-en-2-one] | – | 853 nM
Cc1ccc(-c2ccc(Cl)c(Cl)c2)cc1-c1c(O)c2ccc(Cl)cc2[nH]c1=O [Example 9-7, 7-chloro-3-(3′,4′-dichloro-4-methylbiphenyl-3-yl)-4-hydroxyquinolin-2(1H)-one] | 8290 nM | –
COC1CCC2(CC1)NC(=O)C(c1cc(-c3ccc(Cl)c(Cl)c3)ccc1C)=C2O (stereo not drawn) [Example 1-81, 3-(3′,4′-dichloro-4-methylbiphenyl-3-yl)-4-hydroxy-8-methoxy-1-azaspiro[4.5]dec-3-en-2-one] | 1410 nM | –
Cc1cc(C)c(-c2c(O)c3ccc(Cl)cc3[nH]c2=O)cc1-c1ccc(Cl)cc1 [Example 9-12, 7-chloro-3-(4′-chloro-4,6-dimethylbiphenyl-3-yl)-4-hydroxyquinolin-2(1H)-one] | – | 580 nM
Cc1ccc(-c2ccc(Cl)cc2)cc1C1=C(O)C2(CC2)NC1=O [Example 1-84, 6-(4′-chloro-4-methylbiphenyl-3-yl)-7-hydroxy-4-azaspiro[2.4]hept-6-en-5-one] | – | 455 nM
Cc1ccc(-c2ccc(Cl)cc2)c(C)c1C1=C(O)C2(CCC3(CC2)OCC(C)O3)NC1=O (stereo not drawn) [Example 1-62, 11-(4′-chloro-2,4-dimethylbiphenyl-3-yl)-12-hydroxy-2-methyl-1,4-dioxa-9-azadispiro[4.2.4.2]tetradec-11-en-10-one] | – | 690 nM
CCCC1CCC2(CC1)OC(=O)C(c1cc(-c3ccc(Cl)cc3)ccc1C)=C2O (stereo not drawn) [Example 2-36, 3-(4′-chloro-4-methylbiphenyl-3-yl)-4-hydroxy-8-propyl-1-oxaspiro[4.5]dec-3-en-2-one] | 1940 nM | –
